This is an account of results in ChEMBL document CHEMBL1136781, “Comparison of in vitro P-glycoprotein screening assays: recommendations for their use in drug discovery” (J Med Chem, 2003).

pIC50: −log10 of the molar value. A value given as a limit tells only on which side of the number the result lay.

One may read the pIC50 as the IC50 on a negative log10 scale, so that one unit is a factor of ten. As usually defined, the Inhibition is the relative decrease from the control value, in per cent. As usually defined, the logP is a log measure of how a compound divides between an organic and an aqueous phase.

Data set [1] addresses T1, ATP-dependent translocase ABCB1 (Mus musculus, UniProt P06795). The experiment in a line: Inhibition of P-glycoprotein, mouse L-mdr1b expressed in LLC-PK1 epithelial cells using calcein-AM polarisation assay. It is filed as functional, cell-based.
Data set [2] concerns the target T2, ATP-dependent translocase ABCB1 (Homo sapiens, UniProt P08183). The experiment in a line: TP_TRANSPORTER: inhibition of Rhodamine 123 efflux in Caco-2 cells. It is filed as functional, cell-based. Further details: concentration or dose not given beside the values; scale not given: the % may be the effect or the level left. (Passage across Caco-2 layers is used to estimate intestinal permeability.)

In data set [3] the target is T2, ATP-dependent translocase ABCB1. Put plainly: Inhibition of P-gp was determined using rhodamine-assay in human CaCo-2 cells. Further details: concentration or dose not given beside the values. It is filed as functional, cell-based.
The nature of data set [4]: Partition coefficient (logP). It is filed as physicochemical. Conditions: octanol/water.
In data set [5] the target is T1, ATP-dependent translocase ABCB1. The experiment in a line: TP_TRANSPORTER: inhibition of Calcein-AM efflux in Mdr1b-expressing LLC-PK1 cells. It is filed as functional, cell-based.
Data set [6] deals with T2, ATP-dependent translocase ABCB1. The experiment in a line: Inhibition of P-glycoprotein using ATPase in MDR1 membranes. It is filed as functional, cell membranes.
The target in data set [7] is T3, ATP-dependent translocase ABCB1 (Mus musculus, UniProt P21447). Put plainly: TP_TRANSPORTER: inhibition of Calcein-AM efflux in Mdr1a-expressing LLC-PK1 cells. It is filed as functional, cell-based.
T3 sequence (P21447 whole entry): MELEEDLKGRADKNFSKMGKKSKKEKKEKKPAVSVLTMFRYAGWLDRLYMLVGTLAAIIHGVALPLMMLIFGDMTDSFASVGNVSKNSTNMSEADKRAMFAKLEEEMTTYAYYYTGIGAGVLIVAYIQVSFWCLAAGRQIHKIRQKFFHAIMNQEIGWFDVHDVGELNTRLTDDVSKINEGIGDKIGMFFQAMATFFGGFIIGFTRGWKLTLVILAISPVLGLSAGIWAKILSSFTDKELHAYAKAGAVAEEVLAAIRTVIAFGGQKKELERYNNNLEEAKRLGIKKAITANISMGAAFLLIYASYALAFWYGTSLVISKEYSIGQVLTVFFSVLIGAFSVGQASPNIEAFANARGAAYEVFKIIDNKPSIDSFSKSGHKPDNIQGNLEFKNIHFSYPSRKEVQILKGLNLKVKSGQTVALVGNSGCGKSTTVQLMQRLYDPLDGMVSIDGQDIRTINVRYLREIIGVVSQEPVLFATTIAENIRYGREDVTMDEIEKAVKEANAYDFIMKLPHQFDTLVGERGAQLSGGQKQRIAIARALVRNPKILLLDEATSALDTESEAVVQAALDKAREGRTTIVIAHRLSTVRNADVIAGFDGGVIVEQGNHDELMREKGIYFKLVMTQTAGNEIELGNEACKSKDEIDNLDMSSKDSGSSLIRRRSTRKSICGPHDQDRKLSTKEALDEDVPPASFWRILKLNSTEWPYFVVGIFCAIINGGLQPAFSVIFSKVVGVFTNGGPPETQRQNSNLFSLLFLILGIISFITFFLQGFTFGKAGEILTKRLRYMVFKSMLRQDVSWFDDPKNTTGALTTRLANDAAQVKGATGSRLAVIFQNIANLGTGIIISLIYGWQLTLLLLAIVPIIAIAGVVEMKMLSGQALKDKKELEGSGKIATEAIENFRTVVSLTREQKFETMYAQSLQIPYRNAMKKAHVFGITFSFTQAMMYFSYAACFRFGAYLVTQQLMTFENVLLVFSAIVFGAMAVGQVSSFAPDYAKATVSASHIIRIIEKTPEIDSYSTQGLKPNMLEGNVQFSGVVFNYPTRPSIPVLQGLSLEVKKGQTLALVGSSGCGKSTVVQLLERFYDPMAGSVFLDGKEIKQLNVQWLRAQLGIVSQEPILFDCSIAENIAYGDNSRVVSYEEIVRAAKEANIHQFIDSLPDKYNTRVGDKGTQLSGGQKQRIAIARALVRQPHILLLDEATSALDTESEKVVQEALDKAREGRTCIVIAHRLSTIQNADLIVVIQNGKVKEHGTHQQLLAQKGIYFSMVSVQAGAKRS
In data set [8] the target is T3, ATP-dependent translocase ABCB1. The experiment in a line: Inhibition of P-glycoprotein, mouse L-mdr1a expressed in LLC-PK1 epithelial cells using calcein-AM polarisation assay. It is filed as functional, cell-based.

T2 sequence (P08183 whole entry): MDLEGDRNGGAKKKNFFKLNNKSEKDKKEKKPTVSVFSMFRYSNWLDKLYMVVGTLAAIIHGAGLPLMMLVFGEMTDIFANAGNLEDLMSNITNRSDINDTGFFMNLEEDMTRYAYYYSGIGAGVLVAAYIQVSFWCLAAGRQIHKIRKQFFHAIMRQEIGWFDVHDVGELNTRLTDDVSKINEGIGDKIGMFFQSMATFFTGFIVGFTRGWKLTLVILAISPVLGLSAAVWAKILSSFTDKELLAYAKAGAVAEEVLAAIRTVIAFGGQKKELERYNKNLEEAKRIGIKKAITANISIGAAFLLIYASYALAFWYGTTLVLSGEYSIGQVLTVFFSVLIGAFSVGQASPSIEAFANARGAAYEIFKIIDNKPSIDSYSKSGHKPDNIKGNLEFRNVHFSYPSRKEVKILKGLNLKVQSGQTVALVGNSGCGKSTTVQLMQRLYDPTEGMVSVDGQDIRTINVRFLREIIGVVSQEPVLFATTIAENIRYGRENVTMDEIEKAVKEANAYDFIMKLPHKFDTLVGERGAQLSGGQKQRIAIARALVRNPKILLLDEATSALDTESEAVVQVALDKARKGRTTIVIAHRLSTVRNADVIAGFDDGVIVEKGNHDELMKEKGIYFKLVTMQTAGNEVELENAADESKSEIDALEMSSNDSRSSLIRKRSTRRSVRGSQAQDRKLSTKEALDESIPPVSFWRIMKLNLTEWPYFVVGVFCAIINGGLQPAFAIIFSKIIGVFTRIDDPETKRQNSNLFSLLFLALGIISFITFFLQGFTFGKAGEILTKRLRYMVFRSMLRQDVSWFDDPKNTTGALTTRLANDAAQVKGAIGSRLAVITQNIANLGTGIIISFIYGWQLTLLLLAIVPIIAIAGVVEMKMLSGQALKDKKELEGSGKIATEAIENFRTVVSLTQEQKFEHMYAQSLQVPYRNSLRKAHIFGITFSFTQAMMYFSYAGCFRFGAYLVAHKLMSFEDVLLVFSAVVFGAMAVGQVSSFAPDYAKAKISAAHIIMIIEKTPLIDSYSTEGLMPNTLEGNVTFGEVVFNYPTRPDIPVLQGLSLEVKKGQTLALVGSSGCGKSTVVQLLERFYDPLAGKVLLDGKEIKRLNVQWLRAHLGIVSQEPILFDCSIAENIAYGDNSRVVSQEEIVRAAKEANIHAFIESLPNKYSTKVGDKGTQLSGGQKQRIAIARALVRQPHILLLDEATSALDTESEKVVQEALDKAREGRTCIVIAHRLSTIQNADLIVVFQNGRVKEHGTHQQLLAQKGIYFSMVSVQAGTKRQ
T1 sequence (P06795 whole entry): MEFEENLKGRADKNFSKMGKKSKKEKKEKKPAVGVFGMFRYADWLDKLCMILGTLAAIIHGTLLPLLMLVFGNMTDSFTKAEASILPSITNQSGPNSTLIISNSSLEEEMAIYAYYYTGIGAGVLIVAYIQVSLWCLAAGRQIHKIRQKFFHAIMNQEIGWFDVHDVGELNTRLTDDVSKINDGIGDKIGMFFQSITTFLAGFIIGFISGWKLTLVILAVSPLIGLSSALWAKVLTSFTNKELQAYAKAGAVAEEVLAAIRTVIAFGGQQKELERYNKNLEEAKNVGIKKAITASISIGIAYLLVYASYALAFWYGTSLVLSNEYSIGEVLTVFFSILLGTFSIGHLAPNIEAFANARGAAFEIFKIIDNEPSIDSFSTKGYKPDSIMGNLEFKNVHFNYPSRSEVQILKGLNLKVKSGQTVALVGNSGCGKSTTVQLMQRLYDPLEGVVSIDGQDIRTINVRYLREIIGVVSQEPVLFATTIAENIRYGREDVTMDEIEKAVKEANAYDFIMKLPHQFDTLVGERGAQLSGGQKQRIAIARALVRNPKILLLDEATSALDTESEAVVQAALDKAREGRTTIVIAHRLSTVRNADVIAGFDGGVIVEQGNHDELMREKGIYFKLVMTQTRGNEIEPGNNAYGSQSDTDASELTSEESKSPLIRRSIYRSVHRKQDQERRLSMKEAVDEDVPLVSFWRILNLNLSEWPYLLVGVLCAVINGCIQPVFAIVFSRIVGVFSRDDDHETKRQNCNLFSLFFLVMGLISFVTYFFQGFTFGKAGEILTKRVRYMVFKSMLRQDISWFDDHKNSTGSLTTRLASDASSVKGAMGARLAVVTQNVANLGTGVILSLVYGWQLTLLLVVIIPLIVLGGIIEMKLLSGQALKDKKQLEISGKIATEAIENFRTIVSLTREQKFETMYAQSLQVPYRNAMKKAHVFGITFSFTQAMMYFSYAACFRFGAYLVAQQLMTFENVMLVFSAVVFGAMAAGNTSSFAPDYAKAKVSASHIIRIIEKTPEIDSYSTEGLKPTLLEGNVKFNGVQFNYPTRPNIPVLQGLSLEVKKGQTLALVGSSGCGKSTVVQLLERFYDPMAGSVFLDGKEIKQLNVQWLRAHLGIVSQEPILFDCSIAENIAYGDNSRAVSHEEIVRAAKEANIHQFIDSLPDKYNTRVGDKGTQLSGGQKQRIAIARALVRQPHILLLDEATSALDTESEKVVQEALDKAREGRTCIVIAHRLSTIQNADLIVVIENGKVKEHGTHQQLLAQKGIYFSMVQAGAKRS

Take `CC(C)(C)NC(=O)[C@@H]1C[C@@H]2CCCC[C@@H]2CN1C[C@@H](O)[C@H](Cc1ccccc1)NC(=O)[C@H](CC(N)=O)NC(=O)c1ccc2ccccc2n1`: the pIC50 in data set [1] and in data set [5] was less than 4.30 each time. The Activity in data set [2] was 43%; in data set [6] it was 30 nmol/min/mg. In data set [3], this molecule returned an Inhibition of 43%. In addition, the logP in data set [4] (read-out: logP) was found to be 4.7.

Regarding `Cc1c(O)cccc1C(=O)N[C@@H](CSc1ccccc1)[C@H](O)CN1C[C@H]2CCCC[C@H]2C[C@H]1C(=O)NC(C)(C)C`, the Activity in data set [2] was determined as 30%; in data set [6], 6.2 nmol/min/mg. The molecule further came in with an Inhibition in data set [3] of 30%. In data set [4], the logP is 5.8. Also, the pIC50 in data set [7] and in data set [8] was 5.64 each time.

For the molecule `CN/C(=N/CCSCc1nc[nH]c1C)NC#N` [CIMETIDINE], the pIC50 in data set [1] and in data set [5] was less than 4.30 each time. The results for the Activity in data set [2] and in data set [6] were 4% and 2.8 nmol/min/mg, respectively. This molecule yielded an Inhibition in data set [3] of 4%.

For `C[C@H]1O[C@@H](O[C@H]2[C@@H](O)C[C@H](O[C@H]3[C@@H](O)C[C@H](O[C@H]4CC[C@@]5(C)[C@H](CC[C@@H]6[C@@H]5C[C@@H](O)[C@]5(C)[C@@H](C7=CC(=O)OC7)CC[C@]65O)C4)O[C@@H]3C)O[C@@H]2C)C[C@H](O)[C@@H]1O` [DIGOXIN], the pIC50 in data set [1], in data set [5], in data set [7] and in data set [8] was less than 4.30 in each case.

In the case of `COc1cc([C@@H]2c3cc4c(cc3[C@@H](O[C@@H]3O[C@@H]5CO[C@@H](C)O[C@H]5[C@H](O)[C@H]3O)[C@H]3COC(=O)[C@H]23)OCO4)cc(OC)c1O` [ETOPOSIDE], the pIC50 in data set [1] and in data set [5] was less than 4.30 throughout. Also, the lipophilicity (logP) in data set [4] (read-out: logP) turned out to be 0.6. For the same molecule, the Activity in data set [6] is -0.2 nmol/min/mg.

`CCC(C)n1ncn(-c2ccc(N3CCN(c4ccc(OCC5COC(Cn6cncn6)(c6ccc(Cl)cc6Cl)O5)cc4)CC3)cc2)c1=O` (centres undefined) [ITRACONAZOLE] came in with an Activity in data set [2] of 2%. Besides, the pIC50 in data set [7] is 6.70.

With `CCC(C)n1ncn(-c2ccc(N3CCN(c4ccc(OC[C@H]5CO[C@](Cn6cncn6)(c6ccc(Cl)cc6Cl)O5)cc4)CC3)cc2)c1=O` (some centres undefined) [ITRACONAZOLE], the Inhibition in data set [3] is 2%. The logP in data set [4] (read-out: logP) is 6.5. In data set [6], the Activity worked out at 18 nmol/min/mg. For the same molecule, the pIC50 in data set [8] is 6.70.

`COC(=O)C1=C(C)NC(C)=C(C(=O)OCCN(C)Cc2ccccc2)C1c1cccc([N+](=O)[O-])c1` (centres undefined) [NICARDIPINE]: the pIC50 in data set [1] was 5.10; in data set [5], 5.10; in data set [7], 5.60; in data set [8], 5.60. For the same molecule, the Activity is 100% in data set [2] and 18 nmol/min/mg in data set [6]. Further, in data set [4] (read-out: logP), the logP stood at 5.5.

Regarding `O=c1[nH]c2ccccc2n1C1CCN(CCCC(c2ccc(F)cc2)c2ccc(F)cc2)CC1` [PIMOZIDE], the pIC50 in data set [1] and in data set [5] was less than 4.30 in each case. For the same molecule, the figures for the Activity in data set [2] and in data set [6] were 37% and 11 nmol/min/mg, respectively. Further, the Inhibition in data set [3] was found to be 37%.

For `C=C[C@H]1C[N@@]2CC[C@H]1C[C@@H]2[C@@H](O)c1ccnc2ccc(OC)cc12` [QUINIDINE], the pIC50 in data set [1] is 5.00; in data set [5], 5.00; in data set [7], 4.89; in data set [8] it was 4.89. Further, in data set [4] (read-out: logP), the logP came out at 2.8. In addition, in data set [6], the Activity came to 20 nmol/min/mg.

On to `CC(C)c1nc(CN(C)C(=O)N[C@H](C(=O)N[C@@H](Cc2ccccc2)C[C@H](O)[C@H](Cc2ccccc2)NC(=O)OCc2cncs2)C(C)C)cs1` [RITONAVIR], for which the logP in data set [4] (read-out: logP) is 4.9.

Turning to `CC(C)(C)c1ccc(C(O)CCCN2CCC(C(O)(c3ccccc3)c3ccccc3)CC2)cc1` (centres undefined) [TERFENADINE], the pIC50 in data set [1] and in data set [5] was 5.70 in each case. Further, the logP in data set [4] (read-out: logP) is 5.7. The same molecule had an Activity in data set [6] of 0.4 nmol/min/mg.
